Key:
Assay in all cases: Example B2 herbicidal action, post-emergence, pots in glasshouse, damage score 0-10
Assay type in all cases: in vivo
Conditions in all cases: application post-emergence, rate 1000 g/ha, evaluated after 13 days
Echinochloa crus-galli = tested on: Echinochloa crus-galli
Outline: (§1)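 Evaluation took place 13 days post-spray. Treatment used an acetone/water (50:50), 0.5% Tween 20 formulation applied to 8-day-old potted plants, held at 24/16 °C with 14 h light, 65% humidity and twice-daily watering.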

Setaria faberi = tested on: Setaria faberi
Outline: as §1

Amaranthus retroflexus = tested on: Amaranthus retroflexus
Outline: as §1

Solanum nigrum = tested on: Solanum nigrum
Outline: as §1

Ipomea hederaceae = tested on: Ipomea hederaceae
Outline: as §1

Row | SMILES | ECHCG damage score (10=total damage to plant; 0=no damage to plant) (Echinochloa crus-galli) | SETFA damage score (10=total damage to plant; 0=no damage to plant) (Setaria faberi) | AMARE damage score (10=total damage to plant; 0=no damage to plant) (Amaranthus retroflexus) | SOLNI damage score (10=total damage to plant; 0=no damage to plant) (Solanum nigrum) | IPOHE damage score (10=total damage to plant; 0=no damage to plant) (Ipomea hederaceae)
1 | CC(C)(C)C(=O)OC1=C(c2cc(F)c(Cl)cc2Cl)S(=O)(=O)N(CC(F)F)c2nccnc21 [Compound C47] | 4 | 7 | 10 | 10 | 7
2 | CC(C)C(=O)OC1=C(c2cccc(Cl)c2Cl)S(=O)(=O)N(CC(F)F)c2nccnc21 [Compound C102] | 0 | 0 | 1 | 7 | 6
3 | O=S1(=O)C(c2cc(C(F)(F)F)ccc2Cl)=C(O)c2c(ncc[n+]2[O-])N1CC(F)F [Compound E1, 3-(2-chloro-5-trifluoromethyl-phenyl)-1-(2,2-difluoro-ethyl)-2,2-dioxo-5-oxy-1,2-dihydro-2-λ-6-thia-1,5,8-triaza-naphthalen-4-ol] | 3 | 1 | 4 | 9 | 7
4 | CCN1c2nccnc2C(OC(=O)C(C)(C)C)=C(c2cc(C(F)(F)F)ccc2Cl)S1(=O)=O [Compound C33] | 0 | 0 | 1 | 6 | 5
5 | O=S1(=O)C(c2cc(C(F)(F)F)ccc2Br)=C(O)c2nccnc2N1CC(F)F [Compound D30] | 6 | 3 | 10 | 10 | 10
6 | CCN1c2nccnc2C(OC(=O)C(C)(C)C)=C(c2cc(F)c(Cl)cc2Cl)S1(=O)=O [Compound C45] | 4 | 1 | 0 | 7 | 9
7 | CN1c2nccnc2C(OC(=O)C(C)(C)C)=C(c2c(Cl)ccc(Cl)c2Cl)S1(=O)=O [Compound C93] | 3 | 0 | 0 | 6 | 6
8 | CC(C)C(=O)OC1=C(c2ccc(Cl)cc2Cl)S(=O)(=O)N(CC(F)(F)F)c2nccnc21 [Compound C57] | 4 | 3 | 10 | 10 | 10
9 | O=S1(=O)C(c2ccc(I)cc2Cl)=C(O)c2nccnc2N1CC(F)F [Compound D59] | 3 | 1 | 4 | 8 | 4
10 | CCSC(=O)OC1=C(c2c(Cl)cccc2C(F)(F)F)S(=O)(=O)N(CC(F)F)c2nccnc21 [Compound C105] | 9 | 9 | 10 | 9 | 8
11 | COc1cccc(F)c1C1=C(OC(=O)C(C)C)c2nccnc2N(CC(F)F)S1(=O)=O [Compound C137] | 3 | 8 | 7 | 9 | 8
12 | O=S1(=O)C(c2ccc(Cl)cc2Cl)=C(OCC(F)(F)F)c2nccnc2N1CC(F)(F)F [Compound C106, 3-(2,4-dichloro-phenyl)-4-(2,2,2-trifluoro-ethoxy)-1-(2,2,2-trifluoro-ethyl)-1H-2-thia-1,5,8-triaza-naphthalene 2,2-dioxide] | 1 | 0 | 6 | 7 | 3

Source: patent publication US8133849B2, “Herbicidal compounds” (Syngenta Limited, priority 2007, dated 2012)
